Test results taken from publication PMC7880690, “Chemical genetics and proteome-wide site mapping reveal cysteine MARylation by PARP-7 on immune-relevant protein targets” (eLife, 2021).

Columns and labels:
[1] = molecular target: T1, IG-PARP-12 (I660G PARP-12) (Homo sapiens, UniProt Q9H0J9, I660G); assay: Labeling by orthogonal NAD+ analogs with PARP-12 I660G mutant; format: biochemical; conditions: compared to 5-Bn-6-a-NAD+
T1 construct: GFP; expressed in transfected cells
Description: (§1) Figure 1. A chemical genetic strategy for identifying the direct MARylation targets of PARP-7. (a) Schematic of chemical genetic approach for identifying direct targets of PARP-7. (b) Crystal structure of human PARP1 bound to the non-hydrolyzable NAD^+ analog benzamide adenine dinucleotide (BAD). PDB: 6bhv. […] (c) Chemical structure of the clickable, orthogonal NAD^+ analogs. 5-Bn-2-e-NAD^+ is the optimized substrate for the floor position engineered PARP-7, IG-PARP-7. 5-Bn-6-a-NAD^+ was used in our previous studies by other floor position engineered PARPs (e.g. PARP14). (d) 5-Bn-2-e-NAD^+ is an efficient substrate for IG-PARP-7. HEK293T cells were transfected with either GFP-WT-PARP-7 (control) or GFP-IG-PARP-7. Cell lysates were prepared and incubated with either 5-Bn-2-e-NAD^+ or 5-Bn-6-a-NAD^+ (100 µM). Following copper-catalyzed click chemistry with biotin-azide, proteins were resolved by SDS-PAGE and biotinylated proteins were detected by Western blot detection using Streptavidin-HRP. Biotinylated proteins represent direct MARylation targets of PARP-7. Figure 1—figure supplement 1. Enrichment of PARP-7 MARylation targets and labeling of PARP-12 IG targets using a chemical genetic approach. (a) Labeling of PARP-7 MARylation targets was performed as described in Figure 1. Neutravidin agarose was used to enrich biotinylated proteins (i.e. MARylation targets). […]

GFP-WT-PARP-7 = molecular target: T2, GFP-WT-PARP-7 (Homo sapiens, UniProt Q7Z3E1); assay: Labeling by orthogonal NAD+ analogs in HEK 293T lysates expressing GFP-WT-PARP-7; format: biochemical; conditions: HEK 293 T cell lysates, 100 µM NAD+ analog
T2 construct: expressed in transfected cells; host or cells: HEK 293T
T2 sequence (Q7Z3E1 1-657): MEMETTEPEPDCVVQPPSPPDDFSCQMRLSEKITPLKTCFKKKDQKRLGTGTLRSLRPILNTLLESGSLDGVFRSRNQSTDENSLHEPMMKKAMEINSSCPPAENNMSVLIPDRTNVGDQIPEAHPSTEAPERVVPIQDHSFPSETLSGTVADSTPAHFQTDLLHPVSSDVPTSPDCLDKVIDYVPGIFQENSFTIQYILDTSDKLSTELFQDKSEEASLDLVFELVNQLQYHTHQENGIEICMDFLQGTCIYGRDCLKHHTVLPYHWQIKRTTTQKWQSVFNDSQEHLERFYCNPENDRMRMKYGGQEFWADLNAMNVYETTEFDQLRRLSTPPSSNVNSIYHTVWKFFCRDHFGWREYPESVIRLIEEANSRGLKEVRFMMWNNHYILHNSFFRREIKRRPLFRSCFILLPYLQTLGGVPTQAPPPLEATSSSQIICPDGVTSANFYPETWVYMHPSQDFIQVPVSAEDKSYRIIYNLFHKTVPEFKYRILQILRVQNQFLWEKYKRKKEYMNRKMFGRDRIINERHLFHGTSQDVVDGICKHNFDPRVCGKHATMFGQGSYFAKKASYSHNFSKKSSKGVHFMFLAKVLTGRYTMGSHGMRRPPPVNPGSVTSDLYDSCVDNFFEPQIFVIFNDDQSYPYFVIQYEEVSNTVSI
Description: as §1

GFP-PARP-7 = molecular target: T3, GFP-PARP-7 (Homo sapiens, UniProt Q7Z3E1); assay: Protein levels of ectopically expressed GFP-PARP-7 in HEK 293 T cell time course; conditions: HEK 293 T cell time course, 1 μM
T3 sequence (Q7Z3E1 1-657): T2 sequence (Q7Z3E1 1-657)

T1 sequence (Q9H0J9 whole entry I660G): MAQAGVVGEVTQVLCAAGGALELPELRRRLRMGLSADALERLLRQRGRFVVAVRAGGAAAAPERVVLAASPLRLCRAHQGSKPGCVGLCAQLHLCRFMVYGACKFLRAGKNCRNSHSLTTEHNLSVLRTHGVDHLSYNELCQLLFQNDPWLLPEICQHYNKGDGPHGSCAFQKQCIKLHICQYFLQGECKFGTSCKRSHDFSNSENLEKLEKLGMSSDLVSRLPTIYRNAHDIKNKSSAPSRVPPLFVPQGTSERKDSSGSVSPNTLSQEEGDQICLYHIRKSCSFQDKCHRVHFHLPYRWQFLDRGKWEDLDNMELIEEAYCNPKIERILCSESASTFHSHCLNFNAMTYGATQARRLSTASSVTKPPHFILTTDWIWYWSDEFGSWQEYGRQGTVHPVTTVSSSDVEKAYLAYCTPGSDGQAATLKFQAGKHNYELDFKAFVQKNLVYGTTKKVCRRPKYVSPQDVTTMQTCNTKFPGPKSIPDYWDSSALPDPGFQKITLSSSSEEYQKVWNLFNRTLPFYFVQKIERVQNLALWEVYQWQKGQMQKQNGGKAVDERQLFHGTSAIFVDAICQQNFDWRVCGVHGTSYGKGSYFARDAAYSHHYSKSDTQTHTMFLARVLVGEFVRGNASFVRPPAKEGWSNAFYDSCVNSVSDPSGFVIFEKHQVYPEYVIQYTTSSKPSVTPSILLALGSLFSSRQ

Row | Compound | substrate for IG-PARP-12 [1] | substrate for GFP-WT-PARP-7 (GFP-WT-PARP-7) | protein levels of ectopically expressed GFP-PARP-7 (GFP-PARP-7)
1 | C#Cc1nc(N)c2ncn(C3OC(COP(=O)(O)OP(=O)([O-])OCC4OC([n+]5cc(Cc6ccccc6)cc(C(N)=O)c5)C(O)C4O)C(O)C3O)c2n1 (stereo not drawn) [5-Bn-2-e-NAD^+, 5-benzyl-2-ethynyl-NAD^+] | better substrate | not a substrate | –
2 | N#Cc1ccc(N2CCN(C(=O)c3cc(Cc4n[nH]c(=O)c5ccccc45)ccc3F)CC2)nc1 [Phthal01, 6-(4-(2-fluoro-5-((4-oxo-3,4-dihydrophthalazin-1-yl)methyl)benzoyl)piperazin-1-yl)nicotinonitrile] | – | – | increased
